From patent publication US20130317222A1, “SOLID FORMS OF GYRASE INHIBITOR (R)-1-ETHYL-3-[5-[2-(1-HYDROXY-1-METHYL-ETHYL)PYRIMIDIN-5-YL]-7-(TETRAHYDROFURAN-2-YL]-1H-BENZIMIDAZOL-2-YL]UREA” (Vertex Pharmaceuticals Incorporated, priority 2011, published 2013)
Structures can show the parent of a compound that is named as a salt.

Key:
[1] = tested on: Bacteroides fragilis; assay: MIC, agar dilution method (Protocol 3); format: cell-based; settings: 25 isolates tested
[2] = tested on: Proteus mirabilis; assay: MIC against Gram negatives, microdilution broth method (Protocol 2)
[3] = tested on: Escherichia coli; assay: as above
[4] = tested on: Staphylococcus aureus; assay: MIC, micro dilution broth method (Protocol 1); format: cell-based
[5] = tested on: Pseudomonas aeruginosa; assay: MIC against Gram negatives, microdilution broth method (Protocol 2)
[6] = tested on: Staphylococcus epidermidis; assay: MIC, micro dilution broth method (Protocol 1); format: cell-based; settings: Staphlococcus epidermidis, 35 isolates tested
[7] = tested on: Moraxella catarrhalis; assay: MIC against Gram negatives, microdilution broth method (Protocol 2)
[8] = tested on: Enterococcus faecalis; assay: MIC, micro dilution broth method (Protocol 1); format: cell-based
[9] = tested on: Enterobacter cloacae; assay: MIC against Gram negatives, microdilution broth method (Protocol 2)
[10] = tested on: Clostridium perfringens; assay: microbe, parasite or virus in culture; format: cell-based
[11] = tested on: Fusobacterium spp.; assay: MIC, agar dilution method (Protocol 3); format: cell-based; settings: 16 isolates tested
[12] = tested on: Clostridium difficile; assay: MIC, agar dilution method (Protocol 3); format: cell-based
[13] = tested on: Haemophilus influenzae; assay: MIC against Gram negatives, microdilution broth method (Protocol 2); format: cell-based
Description: The specific protocols used were as follows:
Drug Dilutions, Inoculation, MIC Determination: • 1. […] All MICs were done in duplicate. • 6.

[14] = tested on: N. nova; assay: MIC determination procedure for Mycobacterium species (Protocol 4); format: cell-based; settings: N. nova 10
[15] = tested on: N. asteroids; assay: as above; format: cell-based; settings: N. asteroids 2039
[16] = tested on: Mycobacterium avium; assay: as above; format: cell-based
[17] = tested on: Bacillus subtilis; assay: MIC, micro dilution broth method (Protocol 1); format: cell-based
[18] = tested on: Streptococcus pneumoniae; assay: MIC, micro dilution broth method (Protocol 1); format: cell-based
[19] = tested on: Bacteroides and Parabacter spp.; assay: MIC, agar dilution method (Protocol 3); format: cell-based; settings: 26 isolates tested
[20] = tested on: M. tuberculosis; assay: MIC determination procedure for Mycobacterium species (Protocol 4); format: cell-based
[21] = tested on: Prevotella spp.; assay: MIC, agar dilution method (Protocol 3); format: cell-based; settings: 13 isolates tested
[22] = tested on: β-haemolytic streptococci (Groups A, B, C and G); assay: MIC, micro dilution broth method (Protocol 1); format: cell-based; settings: 28 isolates tested
[23] = tested on: Acinetobacter baumannii; assay: MIC against Gram negatives, microdilution broth method (Protocol 2)
[24] = tested on: Bacillus cereus; assay: MIC, micro dilution broth method (Protocol 1); format: cell-based
[25] = tested on: Peptostreptococcus spp.; assay: MIC, agar dilution method (Protocol 3); format: cell-based; settings: 11 isolates tested
[26] = tested on: Enterococcus faecium; assay: MIC, micro dilution broth method (Protocol 1); format: cell-based
[27] = tested on: Nocardia caviae; assay: MIC determination procedure for Mycobacterium species (Protocol 4); format: cell-based; settings: Nocardia caviae 2497
[28] = tested on: Mycobacterium tuberculosis; assay: Mycobacterium tuberculosis Serum Shift MIC Assay (Protocol 5); format: cell-based
Description: Protocol #5. Protocol for Mycobacterium tuberculosis Serum Shift MIC Assay
Media Prep: • 1. […] It was important that all media and supplements were sterilized prior to MICs. • 2. Prepared all media below and inoculated as described in next section. Tested all compounds against Mtb using each media. • a. 7H9+0.2% glycerol+10% OADC (“standard” MIC media). • b. 7H9+0.2% glycerol+2 g/L dextrose+0.85 g/L NaCl+0.003 g/L catalase (0% FBS). • c. 2×7H9+0.2% glycerol+2 g/L dextrose+0.85 g/L NaCl+0.003 g/L catalase combined with equal volume Fetal Bovine Serum (50% FBS).
Inoculum Prep: • 1. […] Typically plates were two to three weeks of age when used for this assay due to the slow growth of this organism in culture. • 2. Vortexed well, then sonicated in water bath for 30 sec providing a suspension of ˜10^8 cells/ml. […] Prepared inoculum in each of the three media formulations by diluting the BBL Prompt suspension 1/200 (for example: transferred 0.2 ml of cells to 40 ml of medium) to obtain a starting cell density of ˜10^6 cells/ml. • 4.
Drug Dilutions, Inoculation, MIC Determination: • 1. […]
After 24 hours the fluorescence of each well was measured at Excitation 492 nm, Emission 595 nm.
Percent inhibition by a given compound was calculated as follows: Percent inhibition=100−([well fluorescence-average background fluorescence]/[DMSO control−average background fluorescence]×100).

[29] = tested on: Neisseria meningitidis; assay: MIC, agar dilution method (Protocol 3); format: cell-based; settings: 12 isolates tested
Method: (§1) Plate Pouring: • 1. Prepared 100× drug stocks of each test compound as described in Table 1A. Used a 15 mL centrifuge tube, added 100 uL of each drug stock to 10 mL of molten agar (cooled to 55° C. in water bath). Mixed by inverting tube 2-3× then pour into individually labeled 60×15 mm Petri dish. • 2. […] Poured 4 drug free plates: 2 as positive control, 2 as aerobic control. • 4. Allowed plates to dry. Used same day or stored overnight at RT or stored up to 3 days at 4° C. • 5. Plates were labeled accordingly for drug concentration and strain placement. Plate Inoculation (Performed in Biosafety Cabinet): • 1. Streaked each strain onto individual agar plates as described above. Incubated for required time and environmental condition (i.e. anaerobic, microaerophilic, etc). • 2. Used direct colony suspension method to suspend loopfuls of freshly streaked cells into 4 mL 0.9% […] and vortexed. • 3. Adjusted suspension to O.D.600 0.05 (5×10e7 cfu/mL). Vortexed to mix. • 4. Transferred 0.2 mL of adjusted, mixed cultures to a 96 well plate. When ≦5 strains were tested, all strains were lined together in a single row. When testing >5 strains, transfered strains into plate with no more that 5 strains in a single row. This was necessary to fit on the small plates. • 5. […] The former and latter served as growth and inoculation controls. Incubated one plate from each set of drug-free controls under required atmospheric conditions with MIC plates and one set aerobically to test for contamination with aerobic bacteria. Aerobic culture was negative for growth when working with strict anaerobe or microaerophilic strain. Some growth was visible with N. gonorrhoeae. • 6. Allowed inoculum to dry (for as short a time as necessary), then placed upside down in GasPak with appropriate number of sachets and incubate. • 7. Neisseria spp. were incubated at 37° C. in a5% CO2 environment for 24 h. MIC Determination: Examined the test plates after the correct incubation time and read the MIC endpoint at the concentration where a marked reduction occurred in the appearance of growth on the test plate as compared to that of growth on the positive control plates. [table]

[30] = tested on: Neisseria gonorrhoeae; assay: MIC, agar dilution method (Protocol 3); format: cell-based
Method: as §1

[31] = tested on: Klebsiella pneumoniae; assay: MIC against Gram negatives, microdilution broth method (Protocol 2)
[32] = Staphylococcus aureus, 67 isolates tested
[33] = Enterococcus faecalis, 34 isolates tested
[34] = Haemophilus influenzae, 55 isolates tested
[35] = Streptococcus pneumoniae, 67 isolates tested
[36] = M. tuberculosis Erdman ATCC 35801
[37] = Neisseria gonorrhoeae, 13 isolates tested

CCNC(=O)Nc1nc2cc(-c3cnc(C(C)(C)O)nc3)cc([C@H]3CCCO3)c2[nH]1 [Compound 13, methanesulfonic acid salt of 1-ethyl-3-[5-[2-(1-hydroxy-1-methyl-ethyl)pyrimidin-5-yl]-7-[(2R)-tetrahydrofuran-2-yl]-1H-benzimidazol-2-yl]urea]
MIC90 [1]: > 16 µg/mL
MIC90 [2]: > 8 µg/mL
MIC90 [3]: > 8 µg/mL
MIC ([4]; Staphylococcus aureus ATCC 29213): 0.13 µg/mL
MIC ([4]; Staphylococcus aureus ATCC 29213 GyrB T173I): 1.29 µg/mL
MIC ([4]; Staphylococcus aureus ATCC 29213 with Human Serum): 0.31 µg/mL
MIC ([4]; Staphylococcus aureus ATCC 29213 with Mouse Serum): 2 µg/mL
MIC ([4]; Staphylococcus aureus ATCC 29213 with Rat Serum): 0.53 µg/mL
MIC90 [4, 32]: 0.25 µg/mL
MIC Range [4, 32]: 0.03 to 0.5 µg/mL
MIC90 [5]: > 8 µg/mL
MIC Range [6]: 0.03 to 0.25 µg/mL
MIC90 ([6]; Staphylococcus epidermidis): 0.12 µg/mL
MIC90 [7]: 0.12 µg/mL
MIC Range ([7]; 26 isolates tested, Protocol 2): 0.015 to 0.12 µg/mL
MIC ([8]; Enterococcus faecalis ATCC 29212, with Laked Horse Blood): 0.081 µg/mL
MIC90 [8, 33]: 0.25 µg/mL
MIC Range [8, 33]: 0.03 to 0.25 µg/mL
MIC90 [9]: > 8 µg/mL
MIC90 [10]: 0.5 µg/mL
MIC90 [11]: 2 µg/mL
MIC Range [11]: 1 to 4 µg/mL
MIC90 ([12]; Clostridioides difficile, Clostridium difficile, 16 isolates tested): 1 µg/mL
MIC ([12]; Clostridium difficile ATCC BAA-1382): 1 µg/mL
MIC Range ([12]; Clostridium difficile, 16 isolates tested): 0.5 to 16 µg/mL
MIC ([13]; Haemophilus influenzae (Rd1 KW20) ATCC 51907): 2.5 µg/mL
MIC ([13]; Haemophilus influenzae ATCC 49247): 1 µg/mL
MIC ([13]; Haemophilus influenzae Rd0894 (AcrA-)): 0.14 µg/mL
MIC90 [13, 34]: 2 µg/mL
MIC Range [13, 34]: 0.25 to 8 µg/mL
MIC [14]: 8 µg/mL
MIC [15]: 8 µg/mL
MIC ([16]; M. avium 3404.4): 0.94 µg/mL
MIC ([16]; M. avium Far): 0.94 µg/mL
MIC ([16]; Mycobacterium avium 103): 0.47 µg/mL
MIC ([17]; Bacillus subtilis (168) ATCC 6051): > 8 µg/mL
MIC ([17]; Bacillus subtilis ATCC 6638): > 8 µg/mL
MIC ([18]; Streptococcus pneumoniae ATCC 10015, with Laked Horse Blood): 0.022 µg/mL
MIC90 [18, 35]: 0.06 µg/mL
MIC Range [18, 35]: 0.015 to 0.06 µg/mL
MIC90 [19]: > 16 µg/mL
MIC [20, 36]: 0.25 µg/mL
MIC ([20]; M. tuberculosis H37Rv ATCC 25618): 0.37 µg/mL
MIC90 [21]: > 16 µg/mL
MIC90 [22]: 0.25 µg/mL
MIC Range [22]: 0.06 to 0.5 µg/mL
MIC90 [23]: > 8 µg/mL
MIC ([24]; Bacillus cereus ATCC 10987): 0.5 µg/mL
MIC ([24]; Bacillus cereus ATCC 14579): 0.5 µg/mL
MIC90 [25]: > 16 µg/mL
MIC90 ([26]; Enterococcus faecium): 0.5 µg/mL
MIC ([26]; Enterococcus faecium ATCC 49624, Protocol 1): 0.25 µg/mL
MIC ([26]; Enterococcus faecium ATCC 49624 with Laked Horse Blood, Protocol 1): 0.39 µg/mL
MIC Range ([26]; Enterococcus faecium, 33 isolates tested, Protocol 1): 0.12 to 0.5 µg/mL
MIC [27]: 2 µg/mL
MIC [28, 36]: 0.045 µg/mL
MIC ([28]; M. tuberculosis Erdman ATCC 35801 with Mouse Serum): 2 µg/mL
MIC90 [29]: 0.12 µg/mL
MIC Range [29]: 0.015 to 0.25 µg/mL
MIC ([30]; Neisseria gonorrhoeae ATCC 35541): 1.3 µg/mL
MIC ([30]; Neisseria gonorrhoeae ATCC 49226): 2.3 µg/mL
MIC90 [30, 37]: 1 µg/mL
MIC Range [30, 37]: 0.5 to 1 µg/mL
MIC90 [31]: > 8 µg/mL
